Assay results from PubChem BioAssay AID256 (DTP/NCI, 2004).
Several values for one entry are separate records, joined by “and”; a condition that tells them apart may be missing. Identical values can stand only once. Inconclusive results and toxic doses are left out. Rule for the calls: active = survival T/C of 150% or more; inactive = T/C below 125% in these data.

System: CD2F1 mice, L1210 leukemia ip, survival T/C
Assay: NCI In Vivo Anticancer Drug Screen. Data for tumor model L1210 Leukemia (intraperitoneal) in CD2F1 (CDF1) mice
Conditions: higher = longer survival
Method in brief: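 Mice carrying a transplanted tumor received test compound or vehicle alone. The value is the measurement in the treated group divided by that in the vehicle-treated control group.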

[1] = endpoint: mean survival time, dose: 25.0 mg/kg/injection, schedule: Q04DX003 (ip), vehicle: saline
[2] = endpoint: mean survival time, dose: 50.0 mg/kg/injection, schedule: Q04DX003 (ip), vehicle: saline
[3] = endpoint: mean survival time, dose: 100.0 mg/kg/injection, schedule: Q04DX003 (ip), vehicle: saline
[4] = endpoint: mean survival time, dose: 100.0 mg/kg/injection, schedule: Q01DX009 (ip), vehicle: saline with Tween-80
[5] = endpoint: mean survival time, dose: 200.0 mg/kg/injection, schedule: Q01DX009 (ip), vehicle: saline with Tween-80

Measured: T/C

CC(=O)OC1C(C)OC(n2ncc(=O)[nH]c2=O)C(OC(C)=O)C1OC(C)=O (stereo not drawn)
inactive: endpoint: mean survival time, dose: 12.5 mg/kg/injection, schedule: Q01DX005 (ip), vehicle: distilled water + Tween-80 103 % of control | endpoint: mean survival time, dose: 25.0 mg/kg/injection, schedule: Q01DX005 (ip), vehicle: distilled water + Tween-80 100 % of control | endpoint: mean survival time, dose: 50.0 mg/kg/injection, schedule: Q01DX005 (ip), vehicle: distilled water + Tween-80 103 % of control | endpoint: mean survival time, dose: 100.0 mg/kg/injection, schedule: Q01DX005 (ip), vehicle: distilled water + Tween-80 103 % of control | endpoint: mean survival time, dose: 200.0 mg/kg/injection, schedule: Q01DX005 (ip), vehicle: distilled water + Tween-80 107 % of control

CC(=O)OCC1OC(OC(C)=O)C([NH-])C(OC(C)=O)C1OC(C)=O.CC(=O)OCC1OC(OC(C)=O)C([NH-])C(OC(C)=O)C1OC(C)=O.[Cl][Pt+2][Cl] (stereo not drawn)
inactive: endpoint: mean survival time, dose: 12.5 mg/kg/injection, schedule: Q04DX003 (ip), vehicle: saline 98 % of control | [1] 93 % of control | [2] 95 % of control | [3] 90 % of control | endpoint: mean survival time, dose: 200.0 mg/kg/injection, schedule: Q04DX003 (ip), vehicle: saline 95 % of control

CCOC(=O)CCC(NC(=O)c1ccc(NCC2CCc3nc(N)[nH]c(=O)c3N2)cc1)C(=O)OCC (stereo not drawn)
inactive: endpoint: median survival time, dose: 10.0 mg/kg/injection, schedule: Q01DX005 (ip), vehicle: distilled water + Tween-80 97 % of control | endpoint: median survival time, dose: 20.0 mg/kg/injection, schedule: Q01DX005 (ip), vehicle: distilled water + Tween-80 102 % of control | endpoint: median survival time, dose: 40.0 mg/kg/injection, schedule: Q01DX005 (ip), vehicle: distilled water + Tween-80 100 % of control | endpoint: median survival time, dose: 80.0 mg/kg/injection, schedule: Q01DX005 (ip), vehicle: distilled water + Tween-80 96 % of control | endpoint: median survival time, dose: 160.0 mg/kg/injection, schedule: Q01DX005 (ip), vehicle: distilled water + Tween-80 100 % of control

CCOC(=O)C1=C(C)NC(C)=C(C(=O)OCC)C1c1cccc([N+](=O)[O-])c1
inactive: endpoint: mean survival time, dose: 100.0 mg/kg/injection, schedule: Q01DX009 (ip), vehicle: Klucel (hydroxypropylcellulose) (HPC) 105 % of control | endpoint: mean survival time, dose: 200.0 mg/kg/injection, schedule: Q01DX009 (ip), vehicle: Klucel (hydroxypropylcellulose) (HPC) 91 % of control

N#CC(O)Cc1ccccc1 (stereo not drawn)
inactive: endpoint: mean survival time, dose: 5.0 mg/kg/injection, schedule: Q04DX003 (ip), vehicle: saline 98 % of control | endpoint: mean survival time, dose: 10.0 mg/kg/injection, schedule: Q04DX003 (ip), vehicle: saline 98 % of control

O=C1O/C(=C\c2ccccc2)C(O)=C1c1ccccc1
inactive: endpoint: mean survival time, dose: 25.0 mg/kg/injection, schedule: Q01DX001 (ip), vehicle: saline with Tween-80 102 % of control | endpoint: mean survival time, dose: 50.0 mg/kg/injection, schedule: Q01DX001 (ip), vehicle: saline with Tween-80 98 % of control | endpoint: mean survival time, dose: 100.0 mg/kg/injection, schedule: Q01DX001 (ip), vehicle: saline with Tween-80 102 % of control

O=C(Nc1cccc(O)c1)c1ccc([N+](=O)[O-])cc1
inactive: endpoint: mean survival time, dose: 100.0 mg/kg/injection, schedule: Q04DX003 (ip), vehicle: Klucel (hydroxypropylcellulose) (HPC) 97 % of control | endpoint: mean survival time, dose: 200.0 mg/kg/injection, schedule: Q04DX003 (ip), vehicle: Klucel (hydroxypropylcellulose) (HPC) 107 % of control | endpoint: mean survival time, dose: 400.0 mg/kg/injection, schedule: Q04DX003 (ip), vehicle: Klucel (hydroxypropylcellulose) (HPC) 108 % of control

NC(=O)C12CCCCC1CCC(=O)C2 (stereo not drawn)
inactive: [1] 93 % of control | [2] 96 % of control | [3] 90 % of control

O/N=C(/Cl)c1ccccn1
inactive: endpoint: mean survival time, dose: 1.88 mg/kg/injection, schedule: Q04DX003 (ip), vehicle: saline 102 % of control | endpoint: mean survival time, dose: 3.75 mg/kg/injection, schedule: Q04DX003 (ip), vehicle: saline 94 % of control | endpoint: mean survival time, dose: 7.5 mg/kg/injection, schedule: Q01DX001 (ip), vehicle: saline 101 % of control | endpoint: mean survival time, dose: 7.5 mg/kg/injection, schedule: Q04DX003 (ip), vehicle: saline 94 % of control

CC1(C)CCC(C#N)=C1N
inactive: endpoint: mean survival time, dose: 12.5 mg/kg/injection, schedule: Q04DX003 (ip), vehicle: saline with Tween-80 97 % of control | endpoint: mean survival time, dose: 25.0 mg/kg/injection, schedule: Q04DX003 (ip), vehicle: saline with Tween-80 97 % of control | endpoint: mean survival time, dose: 50.0 mg/kg/injection, schedule: Q04DX003 (ip), vehicle: saline with Tween-80 91 % of control

Oc1ccccc1Br
inactive: endpoint: mean survival time, dose: 100.0 mg/kg/injection, schedule: Q01DX001 (ip), vehicle: saline 96 % of control | endpoint: mean survival time, dose: 200.0 mg/kg/injection, schedule: Q01DX001 (ip), vehicle: saline 93 % of control

CC(=O)OC1CC2(O)C(CCC3(C)C(c4ccc(=O)oc4)CCC32O)C2(C)C1=CC(O)C1OC12 (stereo not drawn)
inactive: endpoint: mean survival time, dose: 0.13 mg/kg/injection, schedule: Q01DX009 (sc), vehicle: steriod suspending solution 100 % of control | endpoint: mean survival time, dose: 0.25 mg/kg/injection, schedule: Q01DX009 (sc), vehicle: steriod suspending solution 97 % of control | endpoint: mean survival time, dose: 0.5 mg/kg/injection, schedule: Q01DX009 (sc), vehicle: steriod suspending solution 100 % of control | endpoint: mean survival time, dose: 1.0 mg/kg/injection, schedule: Q01DX009 (sc), vehicle: steriod suspending solution 89 % of control

CN(C)N=Nc1ccc(C#N)cc1
inactive: endpoint: mean survival time, dose: 7.37 mg/kg/injection, schedule: Q01DX009 (ip), vehicle: Klucel (hydroxypropylcellulose) (HPC) 100 % of control | endpoint: mean survival time, dose: 14.75 mg/kg/injection, schedule: Q01DX009 (ip), vehicle: Klucel (hydroxypropylcellulose) (HPC) 100 % of control | endpoint: mean survival time, dose: 29.5 mg/kg/injection, schedule: Q01DX009 (ip), vehicle: Klucel (hydroxypropylcellulose) (HPC) 108 % of control | endpoint: mean survival time, dose: 59.0 mg/kg/injection, schedule: Q01DX009 (ip), vehicle: Klucel (hydroxypropylcellulose) (HPC) 108 % of control | endpoint: mean survival time, dose: 118.0 mg/kg/injection, schedule: Q01DX009 (ip), vehicle: Klucel (hydroxypropylcellulose) (HPC) 120 % of control and 107 % of control

N=c1nc2c3ccccc3nnn2c2ccccc12
inactive: endpoint: mean survival time, dose: 50.0 mg/kg/injection, schedule: Q01DX001 (ip), vehicle: Klucel (hydroxypropylcellulose) (HPC) 101 % of control | endpoint: mean survival time, dose: 100.0 mg/kg/injection, schedule: Q01DX001 (ip), vehicle: Klucel (hydroxypropylcellulose) (HPC) 112 % of control

Cc1ccc(C23CC4CC(CC(C4)C2)C3)cc1
inactive: endpoint: mean survival time, dose: 12.5 mg/kg/injection, schedule: Q04DX002 (ip), vehicle: saline with Tween-80 101 % of control | endpoint: mean survival time, dose: 25.0 mg/kg/injection, schedule: Q04DX002 (ip), vehicle: saline with Tween-80 93 % of control | endpoint: mean survival time, dose: 50.0 mg/kg/injection, schedule: Q04DX002 (ip), vehicle: saline with Tween-80 96 % of control

NC(N)=Nc1ccc(C(=O)Oc2ccc([N+](=O)[O-])cc2)cc1
inactive: [4] 112 % of control | [5] 102 % of control

CCC1c2cc(O)c(OC)cc2CCN1C (stereo not drawn)
inactive: endpoint: mean survival time, dose: 75.0 mg/kg/injection, schedule: Q01DX001 (ip), vehicle: saline 106 % of control

CC(=O)N1C(=O)C2(Nc3cccnc3N2)c2ccccc21 (stereo not drawn)
inactive: endpoint: mean survival time, dose: 100.0 mg/kg/injection, schedule: Q04DX003 (ip), vehicle: saline sonified 97 % of control | endpoint: mean survival time, dose: 200.0 mg/kg/injection, schedule: Q04DX003 (ip), vehicle: saline sonified 88 % of control | endpoint: mean survival time, dose: 400.0 mg/kg/injection, schedule: Q04DX003 (ip), vehicle: saline sonified 103 % of control

CN(C)CC(=O)Nc1cc(Cl)ccc1Oc1ccc(Cl)cc1
inactive: [4] 103 % of control | [5] 100 % of control | endpoint: mean survival time, dose: 400.0 mg/kg/injection, schedule: Q01DX009 (ip), vehicle: saline with Tween-80 105 % of control

CNN(C)N=Nc1ccc(C(N)=O)cc1
inactive: endpoint: mean survival time, dose: 19.75 mg/kg/injection, schedule: Q01DX009 (ip), vehicle: Klucel (hydroxypropylcellulose) (HPC) 110 % of control | endpoint: mean survival time, dose: 39.5 mg/kg/injection, schedule: Q01DX009 (ip), vehicle: Klucel (hydroxypropylcellulose) (HPC) 118 % of control | endpoint: mean survival time, dose: 79.0 mg/kg/injection, schedule: Q01DX009 (ip), vehicle: Klucel (hydroxypropylcellulose) (HPC) 93 % of control

Nc1nc2c(ncn2C2OC(CO)C(O)C2O)c(=O)[n]1[Hg][c]1ccccc1 (stereo not drawn)
inactive: endpoint: median survival time, dose: 0.79 mg/kg/injection, schedule: Q01DX005 (ip), vehicle: saline 103 % of control | endpoint: median survival time, dose: 1.56 mg/kg/injection, schedule: Q01DX005 (ip), vehicle: saline 100 % of control | endpoint: median survival time, dose: 3.12 mg/kg/injection, schedule: Q01DX005 (ip), vehicle: saline 100 % of control | endpoint: median survival time, dose: 6.25 mg/kg/injection, schedule: Q01DX005 (ip), vehicle: saline 100 % of control | endpoint: median survival time, dose: 12.5 mg/kg/injection, schedule: Q01DX005 (ip), vehicle: saline 108 % of control

O=C1C=C(O)c2cc(Br)ccc2C1=O.[Ag]
inactive: endpoint: mean survival time, dose: 25.0 mg/kg/injection, schedule: Q04DX002 (ip), vehicle: saline 106 % of control | endpoint: mean survival time, dose: 50.0 mg/kg/injection, schedule: Q04DX002 (ip), vehicle: saline 113 % of control | endpoint: mean survival time, dose: 100.0 mg/kg/injection, schedule: Q04DX002 (ip), vehicle: saline 97 % of control

COC(=O)c1ccc(O)c([N+](=O)[O-])c1
inactive: endpoint: mean survival time, dose: 100.0 mg/kg/injection, schedule: Q04DX003 (ip), vehicle: saline with Tween-80 104 % of control | endpoint: mean survival time, dose: 200.0 mg/kg/injection, schedule: Q04DX003 (ip), vehicle: saline with Tween-80 93 % of control
